This is an account of results in PubChem BioAssay AID1259411 (Chemical Carcinogenesis Research Information System (CCRIS), 2018).

The source made the active and inactive calls. How the calls were made is not given here.

The data set relates to rodent carcinogenicity bioassays, tumor incidence. Briefly: CCRIS carcinogenicity studies. An outline of the steps:
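Archive of carcinogenicity, mutagenicity, tumor promotion and tumor inhibition results drawn from journals, NCI reports and other sources, expert-reviewed; covers 1985-2011 and is no longer updated.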

`O=NO`: the carcinogen call is, setting by setting: (Species: MOUSE, Strain/Sex: B6C3F1/FEMALE, Route: ORAL, Dose: 0, 30.7, 310 MG/D IN DRINKING WATER FOR LIFE ADMINISTERED TO MICE OF MOTHERS EXPOSED TO SAME DOSES THROUGH PREGNANCY AND, Dose: 0, 30.7, 310 MG/D IN DRINKING WATER FOR LIFE ADMINISTERED TO MICE OF MOTHERS EXPOSED TO SAME DOSES THROUGH PREGNANCY AND) “inactive; negative”; (Species: MOUSE, Strain/Sex: B6C3F1/FEMALE, Route: ORAL, Dose: 0, 750, 1500, 3000 PPM IN DRINKING WATER FOR 104-105 WK (STUDY DURATION: 104-105 WK), Dose: 0, 750, 1500, 3000 PPM IN DRINKING WATER FOR 104-105 WK (STUDY DURATION: 104-105 WK), Tumor Site: Type of Lesion: FORESTOMACH: SQUAMOUS CELL PAPILLOMA OR CARCINOMA) “equivocal”; (Species: MOUSE, Strain/Sex: B6C3F1/MALE, Route: ORAL, Dose: 0, 30.7, 310 MG/D IN DRINKING WATER FOR LIFE ADMINISTERED TO MICE OF MOTHERS EXPOSED TO SAME DOSES THROUGH PREGNANCY AND, Dose: 0, 30.7, 310 MG/D IN DRINKING WATER FOR LIFE ADMINISTERED TO MICE OF MOTHERS EXPOSED TO SAME DOSES THROUGH PREGNANCY AND) “inactive; negative”; (Species: MOUSE, Strain/Sex: B6C3F1/MALE, Route: ORAL, Dose: 0, 750, 1,500, 3,000 PPM IN DRINKING WATER FOR 104-105 WK (STUDY DURATION: 104-105 WK), Dose: 0, 750, 1,500, 3,000 PPM IN DRINKING WATER FOR 104-105 WK (STUDY DURATION: 104-105 WK)) “inactive; negative”; (Species: MOUSE, Strain/Sex: C57BL/FEMALE, Route: ORAL, Dose: 0, 30.7, 310 MG/D IN DRINKING WATER BEGINNING AT 7-8 WK OF AGE AND CONTINUING FOR STUDY DURATION (STUDY DURATION: LIFE S, Dose: 0, 30.7, 310 MG/D IN DRINKING WATER BEGINNING AT 7-8 WK OF AGE AND CONTINUING FOR STUDY DURATION (STUDY DURATION: LIFE S) “inactive; negative”; (Species: MOUSE, Strain/Sex: VM/FEMALE, Route: ORAL, Dose: 0, 0.2% IN DRINKING WATER BEGINNING AT WEANING AND CONTINUING FOR DURATION STUDY (STUDY DURATION: LIFETIME)) “inactive; negative”. In addition, the carcinogen call was “inactive; negative” (Species: MOUSE, Strain/Sex: VM/FEMALE, Route: ORAL, Dose: 0, 0.2% IN DRINKING WATER BEGINNING IN UTERO AND CONTINUING FOR DURATION OF STUDY (STUDY DURATION: LIFETIME)); “inactive; negative” (Species: MOUSE, Strain/Sex: VM/MALE, Route: ORAL, Dose: 0, 0.2% IN DRINKING WATER BEGINNING AT WEANING AND CONTINUING FOR DURATION OF STUDY (STUDY DURATION: LIFETIME)); “inactive; negative” (Species: MOUSE, Strain/Sex: VM/MALE, Route: ORAL, Dose: 0, 0.2% IN DRINKING WATER BEGINNING IN UTERO AND CONTINUING FOR DURATION OF STUDY (STUDY DURATION: LIFETIME)); “inactive; negative” (Species: RAT, Strain/Sex: F344/FEMALE, Route: ORAL, Dose: 0, 750, 1,500, 3,000 PPM IN DRINKING WATER FOR 105 WK (STUDY DURATION: 105 WK), Dose: 0, 750, 1,500, 3,000 PPM IN DRINKING WATER FOR 105 WK (STUDY DURATION: 105 WK)); “inactive; negative” (Species: RAT, Strain/Sex: F344/MALE,FEMALE, Route: ORAL, Dose: 0.125, 0.25% IN DRINKING WATER FOR 2 YR); “inactive; negative” (Species: RAT, Strain/Sex: F344/MALE, Route: ORAL, Dose: 0, 0.2, 0.5% IN DIET FOR 115 WK (STUDY DURATION: 115 WK), Dose: 0, 0.2, 0.5% IN DIET FOR 115 WK (STUDY DURATION: 115 WK)). For the same molecule, the carcinogen call (Species: RAT, Strain/Sex: F344/MALE, Route: ORAL, Dose: 0, 750, 1,500, 3,000 PPM IN DRINKING WATER FOR 105 WK (STUDY DURATION: 105 WK), Dose: 0, 750, 1,500, 3,000 PPM IN DRINKING WATER FOR 105 WK (STUDY DURATION: 105 WK)) is “inactive; negative”.
In the case of `O=c1[nH]c(=O)n([C@H]2C[C@H](O)[C@@H](CO)O2)cc1Br`, the carcinogen call is, setting by setting: (Species: RAT, Strain/Sex: LIO/FEMALE, Route: SUBCUTANEOUS, Dose: 0, 3.2 MG ON DAY 1 OR ON DAYS 1 AND 3 OR ON DAYS 1, 3, 7, AND 21 FOLLOWING BIRTH FOR TOTAL DOSES OF 3.2, 6.4, OR 12.8 MG, Tumor Site: Type of Lesion: THYROID: ADENOMA, KIDNEY: MESENCHYMAL TUMORS) “active; positive”; (Species: RAT, Strain/Sex: LIO/MALE, Route: SUBCUTANEOUS, Dose: 0, 3.2 MG ON DAY 1 OR ON DAYS 1 AND 3 OR ON DAYS 1, 3, 7, AND 21 FOLLOWING BIRTH FOR TOTAL DOSES OF 3.2, 6.4, OR 12.8 MG, Tumor Site: Type of Lesion: TESTES: LEYDIGOMA) “active; positive”.
On to `N#CC(Br)Br`, for which the carcinogen call was “active; positive (ntp describes as clear evidence)” (Species: Mouse, Strain/Sex: B6C3F1/Female (50/group), Route: Oral, Dose: 0, 50, 100, 200 mg/l in drinking water for 2 yr, Dose: 0, 50, 100, 200 mg/l in drinking water for 2 yr, Tumor Site: Type of Lesion: Forestomach: squamous cell papilloma and squamous cell carcinoma combined (1/50, 0/50, 5/50, 14/50)); “active; positive (ntp describes as clear evidence)” (Species: Mouse, Strain/Sex: B6C3F1/Male (50/group), Route: Oral, Dose: 0, 50, 100, 200 mg/l in drinking water for 2 yr, Dose: 0, 50, 100, 200 mg/l in drinking water for 2 yr, Tumor Site: Type of Lesion: Forestomach: squamous cell papilloma and squamous cell carcinoma combined (0/50, 1/50, 0/50, 5/50). Liver: hepatoblastom); “active; positive (ntp describes as some evidence)” (Species: Rat, Strain/Sex: F344/N / Female (50/group), Route: Oral, Dose: 0, 50, 100, 200 mg/l in drinking water for 2 yr, Dose: 0, 50, 100, 200 mg/l in drinking water for 2 yr, Tumor Site: Type of Lesion: Oral Cavity (oral mucosa or tongue): squamous cell papilloma (1/50, 0/50, 4/50, 0/50). Skin: squamous cell papilloma, ke); “active; positive (ntp describes as clear evidence)” (Species: Rat, Strain/Sex: F344/N / Male (50/group), Route: Oral, Dose: 0, 50, 100, 200 mg/l in drinking water for 2 yr, Dose: 0, 50, 100, 200 mg/l in drinking water for 2 yr, Tumor Site: Type of Lesion: Oral Cavity (oral mucosa or tongue): squamous cell papilloma and carcinoma combined (0/50, 0/50, 2/50, 5/50) (Statistica).
For `CCCCOC(=O)c1ccc(O)cc1`, the carcinogen call runs as follows: (Species: MOUSE, Strain/Sex: ICR/FEMALE, Route: ORAL, Dose: 0, 0.15, 0.3, 0.6% IN DIET FOR 102 WK (STUDY DURATION: 106 WK), Dose: 0, 0.15, 0.3, 0.6% IN DIET FOR 102 WK (STUDY DURATION: 106 WK)) “inactive; negative”; (Species: MOUSE, Strain/Sex: ICR/MALE, Route: ORAL, Dose: 0, O.15, 0.3, 0.6% IN DIET FOR 102 WK (STUDY DURATION: 106 WK), Dose: 0, O.15, 0.3, 0.6% IN DIET FOR 102 WK (STUDY DURATION: 106 WK)) “inactive; negative”.
As to `CCCCN(N=O)C(=O)CCC(=O)OCC`, the carcinogen call (Species: RAT, Strain/Sex: F344/MALE,FEMALE, Route: SUBCUTANEOUS, Dose: 38 UMOL/KG IN OLIVE OIL 1/WK FOR 10 WK, Tumor Site: Type of Lesion: INJECTION SITE: MALIGNANT FIBROUS HISTIOCYTOMA) is “active; positive”.
`O=C1CCc2c1cc1c3c2ccc2cccc(c23)C1`: for the setting “Species: MOUSE, Strain/Sex: T.O./MALE, FEMALE, Route: DERMAL, Dose: 0, 50 UG IN TOLUENE SOLUTION 2 D/WK FOR 39 OR 50 WK (STUDY DURATION: 2 YR), Tumor Site: Type of Lesion: SKIN: PAPILLOMA OR CARCINOMA”, the carcinogen call is “active; positive”.
